Results from patent US7371414B2, “Therapeutic and diagnostic methods dependent on CYP2A enzymes” (Nicogen, Inc., priority 1997, dated 2008).
Where two headings read alike, the source gives them in different places.

How the values were obtained:
CYP2A6 [1] = biological target: T1, CYP2A6 (Homo sapiens, UniProt P11509); experiment: In vitro inhibition of nicotine metabolism in expressed CYP2A6
T1 sequence (P11509 1-494): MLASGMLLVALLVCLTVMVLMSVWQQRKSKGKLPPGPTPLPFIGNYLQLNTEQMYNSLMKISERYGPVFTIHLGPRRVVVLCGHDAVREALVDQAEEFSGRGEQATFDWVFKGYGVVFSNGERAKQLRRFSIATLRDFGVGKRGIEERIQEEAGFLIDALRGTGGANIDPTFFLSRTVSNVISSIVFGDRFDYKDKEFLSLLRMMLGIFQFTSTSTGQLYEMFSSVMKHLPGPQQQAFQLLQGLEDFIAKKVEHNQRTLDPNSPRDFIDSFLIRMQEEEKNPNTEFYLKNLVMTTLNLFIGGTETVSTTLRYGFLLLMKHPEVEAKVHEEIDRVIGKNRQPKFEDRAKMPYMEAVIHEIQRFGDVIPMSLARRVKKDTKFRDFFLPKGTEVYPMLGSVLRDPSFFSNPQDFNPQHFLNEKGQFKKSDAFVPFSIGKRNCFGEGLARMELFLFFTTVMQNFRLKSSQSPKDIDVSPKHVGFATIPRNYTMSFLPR

CYP2A6 [2] = biological target: T1, CYP2A6; details: nicotine 4.0 mg p.o.; for increase in plasma nicotine: p<0.01
CYP2A6 [3] = biological target: T1, CYP2A6; experiment: Inhibition of nicotine metabolism to cotinine in test livers; format: biochemical; design: from tissue; host or cells: human smokers in vivo (hepatic CYP2A6)
CYP2A6 [4] = biological target: T1, CYP2A6; experiment: Effect of esculetin on nicotine metabolism by human liver microsomes; format: biochemical; design: from tissue; host or cells: human smokers in vivo (hepatic CYP2A6); details: FIG. 19
Experimental: Nicotine metabolism was monitored in vitro. Inhibitor assessment was carried out by comparing the assay including 50 μl tris buffer with the extracts prepared in Example 11 (50 μl, diluted in tris buffer). Human liver microsomes or CYP2A6 microsomes were used. The concentration of inhibitor in Hypericum was calculated on the basis of an apparent molecular weight of the inhibitor of 504 and a concentration of 0.3% active material in the plant material when diluting to yield concentrations of […] μM.
• Substrate 80 μM (50 μl tris buffer) • NADPH1 mM (50 μl tris buffer) • Microsomes 80 μg (30 μl tris buffer) • Cytosol (rat) 20 μl (tris buffer) • Tris buffer 50 μl (pH7.4) • Final volume […] Incubation Procedure:
The incubation was carried out at 37° C. for 30 min. An internal standard (50 μl, caffeine, 0.05 mg/ml) was added to the incubation mixture, followed by DCM (1 ml). The mixture was shaken for 10 min and centrifuged for 5 min at 3,000 g. The top layer was aspirated. HC1 (0.01 N, 100 μl) was added, followed by shaking for 1 min, then centrifuge for 5 min at 3,000 g. 30 μl of the HCl layer was injected for HPLC. […]

CYP2A6 [5] = biological target: T1, CYP2A6; experiment: Effect of methoxsalen on nicotine metabolism in tobacco dependent smokers (Example 6); format: in vivo; design: from tissue; host or cells: human smokers in vivo (hepatic CYP2A6); details: methoxsalen 10 mg t.i.d. p.o.
Experimental: Subjects were recruited only if they smoked at least 15 cigarette per day, and were required to smoke the same number of cigarettes each day, on all four study days. During assessment, blood was taken to be analyzed for plasma nicotine and cotinine levels, as well as for CYP2A6 genotyping. Breath carbon monoxide was also measured.
During each study day a smoking log was completed. This log asked subjects to document the number of cigarette smoked from 8:00 a.m. to […]., and 10:00 p.m. to 8:00 a.m. Study days 1 and 2 could be separated, but days 2, 3 and 4 were required to be consecutive.
On both study days 1 (placebo) and 4 (treatment), a 24 h urine collection was initiated on waking. At 2:00 p.m. blood was drawn for nicotine and cotinine analysis and breath carbon monoxide was measured. […] Urine samples can be analyzed for 24 h NNAL, NNAL glucuronide, creatinine and cotinine.

CYP2A6 [6] = experiment: In vivo phenotype assay: plasma kinetics of nicotine and coumarin after oral administration by CYP2A6 genotype; details: both, human, 4 mg, plasma nicotine, 90 min after nicotine 4.0 mg oral
Experimental: The plasma kinetics of nicotine and coumarin were compared after oral administration in 10 smokers and 9 non-smokers (12 males, 7 females) of known CYP2A6 genotype. The dose of nicotine was 4.0 mg (expressed as base) and the dose of coumarin was 50 mg. The plasma concentration of nicotine, cotinine, coumarin and 7-OH-coumarin were measured as described above.

[7] = cited from earlier work

N[C@@H]1C[C@H]1c1ccccc1 (racemic) [tranylcypromine]
inhibition of CYP2A6 (in words) (CYP2A6 [1]): potent inhibitors of CYP2A6 | desire to smoke (CYP2A6 [2]; inhibitor dose 2.5 mg (T2.5), p=0.17): significant (p<0.05) decrease | increase in plasma nicotine (CYP2A6 [2]; inhibitor dose 2.5 mg): ~100% | increase in plasma nicotine (CYP2A6 [2]; inhibitor dose 10 mg): ~100% | plasma nicotine compared to placebo (in words) (CYP2A6 [2]; methoxsalen 3 mg, 10 mg or 30 mg, tranylcypromine 2.5 mg or 10 mg): significantly increased

O=c1ccc2ccccc2o1 [coumarin]
inhibition of nicotine metabolism to cotinine (CYP2A6 [3]): 84%±11%

O=c1ccc2cc(O)c(O)cc2o1 [esculetin]
inhibition of nicotine metabolism by CYP2A6 (in words) (CYP2A6 [4]): potent inhibitor of CYP2A6

COc1c2occc2cc2ccc(=O)oc12 [methoxsalen]
decrease in breath CO (CYP2A6 [5]; day 4 vs placebo day): 11% | increase in plasma nicotine (CYP2A6 [5]; day 4 vs placebo day): 17% | breath CO (CYP2A6 [5]; treatment day 4): 20.5 ppm | plasma nicotine (CYP2A6 [5]; treatment day 4): 27 ng/mL | desire to smoke (CYP2A6 [2]; inhibitor dose 10 mg (M10)): significant (p<0.05) decrease | desire to smoke (CYP2A6 [2]; inhibitor dose 30 mg (M30)): significant (p<0.05) decrease

CN1CCCC1c1cccnc1 (stereo not drawn) [nicotine]
concentration at 90 min (CYP2A6 [6]; genotype *1/*1): 24 ± 15 nM | concentration at 90 min (CYP2A6 [6]; genotype *1/*2 or *1/*3): 29 ± 12 nM | concentration at 90 min (CYP2A6 [6]; genotype *2/*2): 52 ± 3 nM | share of nicotine metabolized to the inactive metabolite cotinine ([7]; in humans): 60-85% | share of nicotine metabolized by CYP2A6 in vivo ([7]; in vivo): approximately 75% | share of oral nicotine metabolized to cotinine by the liver ([7]; oral, first pass): 60-85% | nicotine bioavailability ([7]; oral): 20-35% | share of oral nicotine that reaches the systemic circulation ([7]; oral): 15-40%
